In test [1] the target is T1, EGFR L858R/T790M (H1975-clone #36, homozygous) (Homo sapiens, UniProt P00533, L858R/T790M).
T1 construct: designed to specifically target WT EGFR but preserve the L858R/T790M copy; host or cells: H1975-clone #36
Briefly: EGFR degradation HTRF assay, H1975-clone #36 cells. Format: cell-based. The conditions noted are these: H1975 #36, 16h treatment; for Dmax: NCI-H1975, maximum percentage of degradation. How it is done:
H1975-clone #36(L858R/T790M). H1975 cell heterozygously (from ATCC) contains alleles of WT and L858R/T790M EGFR. H1975-clone #36(L858R/T790M) was generated by gene knockout, in which the EGFR targeting sgRNA was designed to specifically target WT EGFR but preserve the L858R/T790M copy. Followed by the gene knockout, the edited H1975 cells were seeded in 96 well plates at the concentration of 1 cell/well, cultured for about 2 weeks to allow single clones formation. The formed clones were screened by DNA sequencing for the desired edition. H1975-clone #36 was confirmed as a homozygous L858R/T790M EGFR clone.
(§1) BaF3 WT(wild type), BaF3-LTC(L858R/T790M/C797S) and BaF3-DTC(Del19/T790M/C797S) cells are treated with compounds diluted in 0.2% DMSO cell culture medium and incubate for 16h, 37° C., 5% CO2, H1975-#36, H1975-#28, H1975-#23 and HCC827 cells are treated with compounds diluted in 0.2% DMSO cell culture medium on day 2, incubate for 16h, 37° C., 5% CO2.the final concentriation of compounds in all assay is start with 10 uM, 5-fold dilution, total 8 doses were included.
(§2) After 16h treatment, add HTRF lysis buffer to each well; seal the plate and incubate 1 hour at room temperature on a plate shaker; Once the cells are lysed, 16 μL of cell lysate are transferred to a PE 384-well HTRF detection plate; 4 μL of pre-mixed HTRF antibodies are added to each well; Cover the plate with a plate sealer, spin 1000 rpm for 1 min, Incubate overnight at room temperature; Read on BMG PheraStar with HTRF protocol (337 nm-665 nm-620 nm).
(§3) The inhibition (degradation) percentage of the compound was calculated by the following equation: Inhibition percentage of Compound=100-100×(Signal-low control)/(High control-low control), wherein signal=each test compound group
(§4) High control=Cell group with added DMSO and without compound, indicating microplate readings without EGFR degradation;
(§5) Dmax is the maximum percentage of inhibition (degradation).
(§6) The IC50 (DC50) value of a compound can be obtained by fitting the following equation
(§7) Y=Bottom+(TOP−Bottom)/(1+((IC50/X)^hillslope))
(§8) Wherein, X and Y are known values, and IC50, Hillslope, Top and Bottom are the parameters obtained by fitting with software. Y is the inhibition percentage (calculated from the equation), X is the concentration of the compound; IC50 is the concentration of the compound when the 50% inhibition is reached. The smaller the IC50 value is, the stronger the inhibitory ability of the compound is. Vice versa, the higher the IC50 value is, the weaker the inhibitory ability of the compound is; Hillslope represents the slope of the fitted curve, generally around 1*; Bottom represents the minimum value of the curve obtained by data fitting, which is generally 0%±20%; Top represents the maximum value of the curve obtained by data fitting, which is generally 100%±20%. The experimental data were fitted by calculating and analyzing with Dotmatics data analysis software.

For test [2], the target named is T2, EGFR (HCC827 cells) (Homo sapiens, UniProt P00533, DEL746-750).
T2 construct: endogenous in cells; host or cells: HCC827
T2 sequence (P00533 with tags, fused parts or gaps DEL746-750): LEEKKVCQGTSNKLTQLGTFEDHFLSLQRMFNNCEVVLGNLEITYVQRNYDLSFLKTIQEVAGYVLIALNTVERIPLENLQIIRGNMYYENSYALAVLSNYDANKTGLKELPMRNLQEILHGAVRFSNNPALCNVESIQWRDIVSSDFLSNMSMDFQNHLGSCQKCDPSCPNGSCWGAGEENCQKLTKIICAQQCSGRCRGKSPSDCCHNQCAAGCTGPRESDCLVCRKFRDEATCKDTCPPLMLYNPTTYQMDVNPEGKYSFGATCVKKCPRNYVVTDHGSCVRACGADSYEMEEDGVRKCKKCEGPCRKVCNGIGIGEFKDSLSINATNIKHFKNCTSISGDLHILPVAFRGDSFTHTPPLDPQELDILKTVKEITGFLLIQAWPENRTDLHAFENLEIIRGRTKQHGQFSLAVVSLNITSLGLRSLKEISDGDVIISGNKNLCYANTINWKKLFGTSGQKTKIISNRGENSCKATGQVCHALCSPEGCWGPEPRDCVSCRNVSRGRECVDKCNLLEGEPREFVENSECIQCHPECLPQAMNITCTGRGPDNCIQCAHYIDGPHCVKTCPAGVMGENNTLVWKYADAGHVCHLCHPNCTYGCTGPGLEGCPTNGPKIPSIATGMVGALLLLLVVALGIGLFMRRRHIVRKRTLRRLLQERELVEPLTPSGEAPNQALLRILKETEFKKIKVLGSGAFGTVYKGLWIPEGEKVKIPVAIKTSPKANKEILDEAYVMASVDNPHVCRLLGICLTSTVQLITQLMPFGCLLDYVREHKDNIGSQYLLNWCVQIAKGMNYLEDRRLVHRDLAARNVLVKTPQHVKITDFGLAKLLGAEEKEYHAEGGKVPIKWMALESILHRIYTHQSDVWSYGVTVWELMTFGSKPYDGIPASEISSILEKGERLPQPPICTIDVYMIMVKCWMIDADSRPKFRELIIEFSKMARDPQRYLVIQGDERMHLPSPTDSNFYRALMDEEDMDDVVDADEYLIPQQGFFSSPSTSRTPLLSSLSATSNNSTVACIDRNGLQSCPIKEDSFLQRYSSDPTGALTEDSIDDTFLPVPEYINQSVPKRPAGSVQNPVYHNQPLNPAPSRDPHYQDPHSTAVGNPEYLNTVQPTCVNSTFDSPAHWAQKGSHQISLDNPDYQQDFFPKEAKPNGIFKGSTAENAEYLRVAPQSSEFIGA
Briefly: EGFR degradation HTRF assay, HCC827 cells. The conditions noted are these: HCC827, 16h treatment; for Dmax: maximum percentage of degradation. Format: cell-based. How it is done: as §1, §2, §3, §4, §5, §6, §7, §8

Counter-ions that a name gives are not always drawn. Where only a bound is given, the exact number is not on record here.

T1 sequence (P00533 25-1210 T790M/L858R): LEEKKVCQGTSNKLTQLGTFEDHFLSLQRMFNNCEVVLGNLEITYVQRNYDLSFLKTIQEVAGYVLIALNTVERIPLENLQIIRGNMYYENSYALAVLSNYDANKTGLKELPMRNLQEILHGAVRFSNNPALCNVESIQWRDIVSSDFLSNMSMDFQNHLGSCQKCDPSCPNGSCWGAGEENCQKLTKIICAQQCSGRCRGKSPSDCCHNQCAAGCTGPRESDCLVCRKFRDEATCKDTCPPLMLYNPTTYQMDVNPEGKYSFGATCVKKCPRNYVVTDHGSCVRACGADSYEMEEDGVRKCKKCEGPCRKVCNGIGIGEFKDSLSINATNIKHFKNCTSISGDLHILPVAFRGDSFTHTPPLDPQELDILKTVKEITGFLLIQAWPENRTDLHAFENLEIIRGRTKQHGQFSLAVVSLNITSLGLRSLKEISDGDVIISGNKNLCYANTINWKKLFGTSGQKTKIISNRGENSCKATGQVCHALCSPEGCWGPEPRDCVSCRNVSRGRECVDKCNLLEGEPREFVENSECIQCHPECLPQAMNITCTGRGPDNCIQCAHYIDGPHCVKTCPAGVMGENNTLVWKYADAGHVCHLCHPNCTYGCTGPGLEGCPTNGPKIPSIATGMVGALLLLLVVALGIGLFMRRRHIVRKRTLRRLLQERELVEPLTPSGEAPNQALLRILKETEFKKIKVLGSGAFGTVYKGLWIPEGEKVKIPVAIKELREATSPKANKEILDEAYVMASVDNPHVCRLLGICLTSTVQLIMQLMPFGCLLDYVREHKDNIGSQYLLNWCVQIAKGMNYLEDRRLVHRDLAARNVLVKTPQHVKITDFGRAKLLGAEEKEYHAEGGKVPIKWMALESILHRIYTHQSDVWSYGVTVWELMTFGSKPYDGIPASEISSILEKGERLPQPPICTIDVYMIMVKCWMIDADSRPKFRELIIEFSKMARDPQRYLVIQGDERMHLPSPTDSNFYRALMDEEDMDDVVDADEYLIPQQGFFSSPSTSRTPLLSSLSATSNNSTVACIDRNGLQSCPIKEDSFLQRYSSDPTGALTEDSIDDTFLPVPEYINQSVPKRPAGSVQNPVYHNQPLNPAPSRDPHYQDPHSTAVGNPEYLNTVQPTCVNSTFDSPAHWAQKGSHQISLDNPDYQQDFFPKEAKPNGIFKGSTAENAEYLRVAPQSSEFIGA

In test [1], `CCc1cc(Nc2ncc(Br)c(Nc3ccc4nccnc4c3P(C)(C)=O)n2)c(OC)cc1N1CCC(N2CCN(CCc3ccc(C4CCC(=O)NC4=O)c(OC)c3)CC2)CC1` (centres unmarked) [Example 2, 3-(4-(2-(4-(1-(4-((5-bromo-4-((5-(dimethylphosphoryl)quinoxalin-6-yl)amino)pyrimidin-2-yl)amino)-2-ethyl-5-methoxyphenyl)piperidin-4-yl)piperazin-1-yl)ethyl)-2-methoxyphenyl)piperidine-2,6-dione] gave a DC50 of 3720 nM and a Dmax of 53.6%. In test [2], this compound gave a DC50 of 18 nM and a Dmax of 78.5%.

Take `CCc1cc(Nc2ncc(Br)c(Nc3ccc4nccnc4c3P(C)(C)=O)n2)c(OC)cc1N1CCC(N2CCN(CCc3ccc(C4CCC(=O)NC4=O)c(C)c3)CC2)CC1` (centres unmarked) [Example 3, 3-(4-(2-(4-(1-(4-((5-bromo-4-((5-(dimethylphosphoryl)quinoxalin-6-yl)amino)pyrimidin-2-yl)amino)-2-ethyl-5-methoxyphenyl)piperidin-4-yl)piperazin-1-yl)ethyl)-2-methylphenyl)piperidine-2,6-dione]: in test [1], the DC50 is above 10000 nM and the Dmax was found to be 45.1%. Besides, in test [2], the 50% degradation concentration (DC50) is 14.3 nM and the Dmax was 72.3%.

For the compound `CCc1cc(Nc2ncc(Br)c(Nc3ccc4nccnc4c3P(C)(C)=O)n2)c(OC)cc1N1CCC(N2CCN(CCc3ccc(C4CCC(=O)NC4=O)c(Cl)c3)CC2)CC1` (centres unmarked) [Example 4, 3-(4-(2-(4-(1-(4-((5-bromo-4-((5-(dimethylphosphoryl)quinoxalin-6-yl)amino)pyrimidin-2-yl)amino)-2-ethyl-5-methoxyphenyl)piperidin-4-yl)piperazin-1-yl)ethyl)-2-chlorophenyl)piperidine-2,6-dione], the DC50 in test [1] was determined as 7.44 nM; in test [2] it was 11.1 nM. The maximal degradation (Dmax) in test [1] turned out to be 75.4%; in test [2], 83.6%.

In test [1], `CCc1cc(Nc2ncc(Br)c(Nc3ccc4nccnc4c3P(C)(C)=O)n2)c(OC)cc1N1CCC(N2CCN(CCc3ccc(C4CCC(=O)NC4=O)cn3)CC2)CC1` (centres unmarked) [Example 13, 3-(6-(2-(4-(1-(4-((5-bromo-4-((5-(dimethylphosphoryl)quinoxalin-6-yl)amino)pyrimidin-2-yl)amino)-2-ethyl-5-methoxyphenyl)piperidin-4-yl)piperazin-1-yl)ethyl)pyridin-3-yl)piperidine-2,6-dione] came in with a DC50 above 10000 nM and a Dmax of 42.8%. In test [2], this compound showed a DC50 of 9.48 nM and a Dmax of 78.9%.

Consider `CCc1cc(Nc2ncc(Br)c(Nc3ccc4nccnc4c3P(C)(C)=O)n2)c(OC)cc1N1CCC(N2CCN(CCOc3ccc(C4CCC(=O)NC4=O)cc3)CC2)CC1` (centres unmarked) [Example 17, 3-(4-(2-(4-(1-(4-((5-bromo-4-((5-(dimethylphosphoryl)quinoxalin-6-yl)amino)pyrimidin-2-yl)amino)-2-ethyl-5-methoxyphenyl)piperidin-4-yl)piperazin-1-yl)ethoxy)phenyl)piperidine-2,6-dione formate], for which the DC50 in test [1] was above 10000 nM; in test [2], 25.4 nM. In addition, the Dmax in test [1] was found to be 6.77%; in test [2] it was 73.3%.

As to `CCc1cc(Nc2ncc(Br)c(Nc3ccc4nccnc4c3P(C)(C)=O)n2)c(OC)cc1N1CCC(N2CCN(CC3CCN(c4ccc(C5CCC(=O)NC5=O)cc4)CC3)CC2)CC1` (centres unmarked) [Example 22, 3-(4-(4-((4-(1-(4-((5-bromo-4-((5-(dimethylphosphoryl)quinoxalin-6-yl)amino)pyrimidin-2-yl)amino)-2-ethyl-5-methoxyphenyl)piperidin-4-yl)piperazin-1-yl)methyl)piperidin-1-yl)phenyl)piperidine-2,6-dione], the DC50 in test [1] was above 10000 nM; in test [2], 6.26 nM. In addition, the Dmax in test [1] was 41.7%; in test [2], 67.5%.

Consider `CCc1cc(Nc2ncc(Br)c(Nc3ccc4nccnc4c3P(C)(C)=O)n2)c(OC)cc1N1CCC(N2CCN(C(=O)CC3CCN(c4ccc(C5CCC(=O)NC5=O)cc4)CC3)CC2)CC1` (centres unmarked) [Example 24, 3-(4-(4-(2-(4-(1-(4-((5-bromo-4-((5-(dimethylphosphoryl)quinoxalin-6-yl)amino)pyrimidin-2-yl)amino)-2-ethyl-5-methoxyphenyl)piperidin-4-yl)piperazin-1-yl)-2-oxoethyl)piperidin-1-yl)phenyl)piperidine-2,6-dione], for which, in test [1], the DC50 turned out to be 5.72 nM and the maximal degradation (Dmax) was found to be 65.5%. Besides, in test [2], it took 6.59 nM to reach half-maximal degradation (DC50) and the Dmax is 74.7%.

In test [2], `CN(c1ccccc1Nc1nc(Nc2ccc(N3CC4(CN(CCc5ccc(NC6CCC(=O)NC6=O)cc5)C4)C3)c(F)c2)ncc1Cl)S(C)(=O)=O` (centres unmarked) [Example 136, N-(2-((5-chloro-2-((4-(6-(4-((2,6-dioxopiperidin-3-yl)amino)phenethyl)-2,6-diazaspiro[3.3]heptan-2-yl)-3-fluorophenyl)amino)pyrimidin-4-yl)amino)phenyl)-N-methylmethanesulfonamide] returned a DC50 of 68.5 nM and a Dmax of 79.5%.

In test [2], `CN(c1ccccc1Nc1nc(Nc2ccc(N3CC4(CN(C(=O)C5CCN(CC6CCN(c7ccc8c(c7)C(=O)N(C7CCC(=O)NC7=O)C8=O)CC6)CC5)C4)C3)c(F)c2)ncc1Cl)S(C)(=O)=O` (centres unmarked) [Example 137, N-(2-((5-chloro-2-((4-(6-(1-((1-(2-(2,6-dioxopiperidin-3-yl)-1,3-dioxoisoindolin-5-yl)piperidin-4-yl)methyl)piperidine-4-carbonyl)-2,6-diazaspiro[3.3]heptan-2-yl)-3-fluorophenyl)amino)pyrimidin-4-yl)amino)phenyl)-N-methylmethanesulfonamide] gave a DC50 of 9.41 nM and a maximal degradation (Dmax) of 92.5%.

In the case of `COc1cc(N2CCC(N3CCN(CCC4CCN(c5ccc(N6CCC(=O)NC6=O)cc5)CC4)CC3)CC2)ccc1Nc1ncc(Cl)c(Nc2ccccc2NS(C)(=O)=O)n1` [Example 139, N-(2-((5-chloro-2-((4-(4-(4-(2-(1-(4-(2,4-dioxotetrahydropyrimidin-1(2H)-yl)phenyl)piperidin-4-yl)ethyl)piperazin-1-yl)piperidin-1-yl)-2-methoxyphenyl)amino)pyrimidin-4-yl)amino)phenyl) methanesulfonamide], in test [2], the DC50 amounted to 53.6 nM and the maximal degradation (Dmax) was determined as 75.7%.

In test [2], `COc1cc(N2CCC(N3CCN(C(=O)CCCCN4CCN(c5ccc6c(c5)C(=O)N(C5CCC(=O)NC5=O)C6=O)CC4)CC3)CC2)ccc1Nc1ncc(Cl)c(Nc2ccccc2NS(C)(=O)=O)n1` (centres unmarked) [Example 141, N-(2-((5-chloro-2-((4-(4-(4-(5-(4-(2-(2,6-dioxopiperidin-3-yl)-1,3-dioxoisoindolin-5-yl)piperazin-1-yl)pentanoyl)piperazin-1-yl)piperidin-1-yl)-2-methoxyphenyl)amino)pyrimidin-4-yl)amino)phenyl)methanesulfonamide] showed a DC50 of 19.2 nM and a Dmax of 82%.

In test [2], `COc1cc(N2CCC(N3CCN(C(=O)C4CCN(CC5CCN(c6ccc7c(c6)C(=O)N(C6CCC(=O)NC6=O)C7=O)CC5)CC4)CC3)CC2)ccc1Nc1ncc(Cl)c(Nc2ccccc2NS(C)(=O)=O)n1` (centres unmarked) [Example 142, N-(2-((5-chloro-2-((4-(4-(4-(1-((1-(2-(2,6-dioxopiperidin-3-yl)-1,3-dioxoisoindolin-5-yl)piperidin-4-yl)methyl)piperidine-4-carbonyl)piperazin-1-yl)piperidin-1-yl)-2-methoxyphenyl)amino)pyrimidin-4-yl)amino)phenyl)methanesulfonamide] returned a 50% degradation concentration (DC50) of 6.22 nM and a Dmax of 89.4%.
